First: CCOC(=O)Cn1cc2c(n1)-c1ccccc1N(C(=O)c1ccc(NC(=O)c3ccc(Cl)cc3Cl)cc1)CC2
Second: CCOC(=O)c1ccc(N=C(Nc2ccc(C(=O)OCC)cc2)c2ccccc2)cc1
The melting point of the first is lower: 164 to 167 °C for the first, 170 to 172 °C for the second.

Compared with `CCNS(=O)(=O)c1ccc(N2N=C(C)C(=CNc3ccccc3OCC)C2=O)cc1`, `COc1ccc(C2CN(S(=O)(=O)c3ccc(C)cc3)Cc3ccccc32)c(CO)c1OC` (stereo not given) is lower in melting point: 238 °C for the first, 162 to 164 °C for the second.

Compared with `Fc1cc(F)c2c(c1)CC(n1cc[nH]c1=S)CC2` (stereo not given), `CC(=O)NC[C@H]1CN(c2ccc(N3CCC(n4cc(C(C)=O)nn4)CC3)c(F)c2)C(=O)O1` is lower in melting point: 250 to 251 °C for the first, 220 to 222 °C for the second.

Compared with `O=C(CCCCCCCNC(=O)c1cn2c3c(cccc13)CCC2)NO`, `O=[N+]([O-])c1ccc2nc(CCCCCCCCc3nc4ccc([N+](=O)[O-])cc4[nH]3)[nH]c2c1` is lower in melting point: 174 to 176 °C for the first, 135 to 137 °C for the second.

First: COC(=O)Cn1c(=O)[nH]c(=O)c2ccc(Cl)cc21
Second: COCC(=O)Nc1ccc(C2=NNC(=O)C3CC23)cc1 (stereo not given)
The melting point of the first is higher: 255 to 258 °C for the first, 206 °C for the second.

Compared with `COC(=O)C(O)Cc1ccc(O)cc1` (stereo not given), `Nc1nc(NCCc2ccc(O)cc2)nc2nc(-c3ccco3)nn12` is higher in melting point: 42 to 43 °C for the first, 225 to 227 °C for the second.

First: Cn1nnnc1CC(=O)c1cc(F)c(Cl)cc1N
Second: CCOC(=O)c1cc(N)nn1C
The melting point of the first is higher: 180 to 184 °C for the first, 57 to 58 °C for the second.

Compared with `CC(C)[C@@H](CO)NS(=O)(=O)c1ccc(Br)cc1`, `CC(C)Cn1cnc2c(N)nc3cc(Br)ccc3c21` is higher in melting point: 89 to 94 °C for the first, 218 to 220 °C for the second.

First: O=C(Nc1ccc(F)c(F)c1)C12CC3CC(CC(C3)C1)C2
Second: O=C(Nc1ccc(Br)c(C(F)(F)F)c1)c1ccccc1[N+](=O)[O-]
The melting point of the first is higher: 168 to 170 °C for the first, 157 to 158 °C for the second.

Compared with `CC1CCC2(OC1)OC1CC3C4CCC5CC(=O)CCC5(C)C4CCC3(C)C1C2C` (stereo not given), `CC1=C(C(=O)OC(C)C)C(c2cccc([N+](=O)[O-])c2)c2c(nc(N3CCOCC3)nc2N2CCOCC2)N1` (stereo not given) is higher in melting point: 209 to 211 °C for the first, 229 °C for the second.

First: O=[N+]([O-])c1cc(S(=O)c2ccc(-c3ccc(Br)cc3)cc2)ccc1Cl (stereo not given)
Second: Cc1cc(-c2ccc(-c3ccc(F)cc3)cc2)n[nH]c1=O
The melting point of the first is lower: 173 to 175 °C for the first, 247 to 248 °C for the second.

First: NC(=O)c1ccccc1N1CCC1COc1cncc(F)c1 (stereo not given)
Second: COc1ccc2c(c1OCc1ccccc1)CCN(C=O)C2
The melting point of the first is lower: 71 to 72 °C for the first, 118 °C for the second.

Compared with `N#Cc1ccc2ccc(=O)oc2c1`, `O=C1NC(=O)C2(c3ccc4ccc(Cl)nc4n3)C=CC=CC12` (stereo not given) is higher in melting point: 217 to 225 °C for the first, 268 °C for the second.

First: CN1C(=O)[C@H](NC(=O)Nc2cccc(CC(=O)O)c2)N=C(c2ccccc2)c2ccccc21
Second: CC1(c2ccc(-c3ccccc3)cc2)OC(=O)C(OCc2ccccc2)=C1O (stereo not given)
The melting point of the first is lower: 167 to 170 °C for the first, 182 to 183 °C for the second.

First: CC(C)(C)OC(=O)N[C@@H](CC1CCCCC1)[C@H](O)c1ccccn1
Second: CC(C)(C)n1nc(Cc2ccncc2)c(C(N)=O)c1N
The melting point of the first is lower: 84 to 85 °C for the first, 125 to 127 °C for the second.

First: Cc1c(Cc2ccc(C(C)C)cc2)c2c(c(C)c1NC(=O)CC(C)(C)C)CC(C)(C)O2
Second: Cc1nc(C)c(Cl)c(NCc2ccc(O)c(OC(F)F)c2)n1
The melting point of the first is higher: 170 to 171 °C for the first, 167 to 168 °C for the second.

Compared with `Cc1cc2c(O)nc(O)nc2s1`, `Oc1cncc2ccsc12` is lower in melting point: over 300 °C for the first, 180 °C for the second.

First: CCC(CC)NC(=O)n1nc(Oc2c(Cl)cc(C(F)(F)F)cc2Cl)cc1C
Second: O=C(O)c1cc(-n2nc3n(c2=O)CCCC3)c(F)cc1Cl
The melting point of the first is lower: 65 to 67 °C for the first, 91 to 94 °C for the second.

First: CCCCCCCCCCc1c(C)c(C)c(-c2n[nH]c3cc(C(C)(C)C)nn23)c(C)c1C
Second: COC1=CC(=O)C(OC)=C(CCCOCCC2=C(OC)C(=O)C=C(OC)C2=O)C1=O
The melting point of the first is higher: 194 to 195 °C for the first, 129 to 130 °C for the second.

Going from `Cc1ccc(C(=O)Nc2nc(C(Cl)(Cl)Cl)ns2)cc1` to `C=C(c1ccc(N2CCCC2)cc1)c1ccc(N2CCCC2)cc1`, the melting point rises from 127 °C to 211 °C.

From a melting point compilation (Tetko et al.; mined from patent text by program, amines drawn as free bases though some values may be those of a salt)
